Columns and labels:
[1] = test system: osteoblasts derived from trabecular bone; conditions: cited from earlier work
[2] = binding and release of antimicrobial silver on Ti, PCL and PEEK (previous in house work); format: physicochemical
[3] = Palacos cement; cited from earlier work
[4] = Palacos cement; cited from earlier work; remark: listed apart in the source

In the case of `NC[C@H]1O[C@H](O[C@H]2[C@H](O)[C@@H](O[C@H]3O[C@H](CO)[C@@H](O)[C@H](N)[C@H]3O)[C@H](N)C[C@@H]2N)[C@H](N)C[C@@H]1O` [Tobramycin, tobramycin], the higher concentrations at which replication decreases and eventually cell death occurs [1] is given as over 400 µg/mL and the low levels with no or little effect on the replication of osteoblasts [1] is given as under 200 µg/mL.

For `[Ag]` [antimicrobial silver, silver], the “time of release above MIC” value [2] was 40 days and the “released level (above MIC)” value ([2]; for 40 days) was “above 1 ug/mL”.

In the case of `CN[C@H](CC(C)C)C(=O)N[C@H]1C(=O)N[C@@H](CC(N)=O)C(=O)N[C@H]2C(=O)N[C@H]3C(=O)N[C@H](C(=O)N[C@H](C(=O)O)c4cc(O)cc(O)c4-c4cc3ccc4O)[C@H](O)c3ccc(c(Cl)c3)Oc3cc2cc(c3O[C@@H]2O[C@H](CO)[C@@H](O)[C@H](O)[C@H]2O[C@H]2C[C@](C)(N)[C@H](O)[C@H](C)O2)Oc2ccc(cc2Cl)[C@H]1O` [vancomycin], the “high concentrations at which cell death of osteoblasts occurs” value [1] is listed as 10,000 /mL and the low levels with no or little effect on the replication of osteoblasts [1] is listed as under 1 µg/mL.

In the case of gentamicin, the “effects at high concentrations” value [3] is listed as “local cytotoxic effects”, the “elution from cement at low doses” value [4] is listed as “very little elution occurs” and the “levels impeding 3H-thymidine levels” value [1] is listed as over 100 mL⁻¹.

In the case of teicoplanin, the “effects at high concentrations” value [3] is listed as “local cytotoxic effects” and the “elution from cement at low doses” value [4] is listed as “very little elution occurs”.
